Assay results from paper PMC9743095 (Journal of Medicinal Chemistry, 2022).
Read-outs that look alike come from different tables or passages of the source.

Columns and labels:
Assay type in all cases: cell-based
CRL cell line = assay: ATP viability assay; details: Homo sapiens, read-out: LC50
Experimental: HL-60 (ATCC CCL-240), K562 (ATCC CCL-243), CCRF-CEM (ATCC CRM-CCL-119), and RL (ATCC CRL-2261) leukemia cell lines were obtained from the American Type Culture Collection (ATCC), Middlesex. HL-60 and K562 cell lines are deoxynucleotidyl transferase-negative (TdT^–ve), whereas CCRF-CEM cell line is TdT^+ve. They were cultured in RPMI-1640 medium (Sigma-Aldrich, U.K.), which were supplemented with 10% fetal bovine serum (FBS) (PAA Laboratories), 1% amphotericin B (5.5 mL), and 1% penicillin/streptomycin (5.5 mL) (PAA Laboratories) and grown in flasks at 37 °C in an incubator with 5% CO2. For the studies with inhibitors, the cells were treated with 10 μM nitrobenzylthioinosine (NBTI, hENT inhibitor) or 1 μM EHNA (EHNA hydrochloride) or A-134974 (A-134974 dihydrochloride hydrate) and left for 5 min before adding the drug. The cells were then incubated for 2 h at 37 °C with 5% CO2.
The amount of ATP was used as a measurement of cell number and cell viability. ATP ViaLightTM plus assay kit (Lonza: Product No. LT07-121) to detect ATP in cells treated in luminescence compatible 96-well plates (initial concentration of cells was 1 × 10^4 cells/well) with Cordycepin and ProTides at concentrations of 0, 0.1, 0.5, 1, 5, and 10 μM, followed by incubation for 72 h at 37 °C in an incubator with 5% CO2. For inhibitor studies, 10 μM NBTI or 1 μM EHNA or A-134974 was added and left for 5 min before adding the drugs. After incubation, 50 μL of cell lysis reagent was added to the 96-well plates to release the intracellular ATP, followed by 100 μL of ATP monitoring reagent (AMR). The luminescent values of each well were determined using FLUOstar OPTIMA microplate reader (BMG Labtech), which converted ATP into light using luciferase enzyme. Therefore, the amount of luminescence produced was directly proportional to the amount of ATP.

MV4-11 = assay: cells; details: for CC50: Homo sapiens, MV4-11, 72 h, read-out: LC50; for MI%: MV4-11, maximum inhibitory effect over concentration range
Experimental: (§1) The assay was contracted and carried out by WuXi AppTec (Shanghai) Co., Ltd. The tumor cell lines CCRF-CEM, HL-60, KG-1, MOLT-4, K562, MV4-11, THP-1, HEL92.1.7, NCI-H929, RPMI-8226, Jurkat, Z138, RL, HS445, HepG2, MCF-7, Bx-PC-3, HT29, MIA PaCa-2, and SW620 were seeded at cell densities of […] 10^3 cells/well in a 96-well plate the day before drug incubation. Then, the plates were incubated for 72 h with the different concentrations of compound to be tested. After the incubation period, 50 μL of MTS was added and the tumor cells were incubated for 4 h at 37 °C. The data were read and collected by a Spectra Max 340 absorbance microplate reader. The compounds were tested in duplicate with nine serial concentrations (3.16-fold titrations with 198 μM as the highest concentration), and the data were analyzed by XLfit software.

HT29 = assay: cells; details: for MI%: HT29, maximum inhibitory effect over concentration range; for CC50: Homo sapiens, HT-29, 72 h, read-out: lC50
Experimental: as §1

HL-60 = assay: cells; details: Homo sapiens, HL-60, 72 h; for CC50: read-out: LC50; for Emax: read-out: MI%
Experimental: as §1

THP-1 = assay: cells; details: for CC50: Homo sapiens, THP-1, 72 h, read-out: LC50; for MI%: THP-1, maximum inhibitory effect over concentration range
Experimental: as §1

SW620 = assay: cells; details: for CC50: Homo sapiens, SW-620, 72 h, read-out: LC50; for MI%: SW620, maximum inhibitory effect over concentration range
Experimental: as §1

NCI-H929 = assay: cells; details: for CC50: Homo sapiens, NCI-H929, 72 h, read-out: LC50; for MI%: NCI-H929, maximum inhibitory effect over concentration range
Experimental: as §1

RL = assay: cells; details: for CC50: Homo sapiens, 72 h, read-out: LC50; for MI%: maximum inhibitory effect over concentration range
Experimental: as §1

K562 = assay: cells; details: Homo sapiens, K562, 72 h; for CC50: read-out: LC50; for Emax: read-out: MI%
Experimental: as §1

BxPC-3 = assay: cells; details: for MI%: BxPC-3, maximum inhibitory effect over concentration range; for CC50: Homo sapiens, BXPC-3, 72 h, read-out: LC50
Experimental: as §1

CCRF-CEM = assay: cells; details: Homo sapiens, 72 h; for CC50: read-out: LC50; for Emax: read-out: MI%
Experimental: as §1

HS445 = assay: cells; details: for MI%: HS445, maximum inhibitory effect over concentration range; for CC50: Homo sapiens, Hs 445, 72 h, read-out: LC50
Experimental: as §1

Z138 = assay: cells; details: for CC50: Homo sapiens, Z-138, 72 h, read-out: LC50; for MI%: Z138, maximum inhibitory effect over concentration range
Experimental: as §1

HepG2 = assay: cells; details: Homo sapiens, HepG2, 72 h; for CC50: read-out: LC50; for Emax: read-out: MI%
Experimental: as §1

MCF-7 = assay: cells; details: Homo sapiens, MCF7, 72 h; for CC50: read-out: LC50; for Emax: read-out: MI%
Experimental: as §1

MIA PaCa-2 = assay: cells; details: for CC50: Homo sapiens, MIA PaCa-2, 72 h, read-out: LC50; for MI%: MIA PaCa-2, maximum inhibitory effect over concentration range
Experimental: as §1

HEL92.1.7 = assay: cells; details: for MI%: HEL92.1.7, maximum inhibitory effect over concentration range; for CC50: Homo sapiens, HEL 92.1.7, 72 h, read-out: LC50
Experimental: as §1

Jurkat = assay: cells; details: for CC50: Homo sapiens, 72 h, read-out: LC50; for CC50 / MI%: Jurkat; for MI%: maximum inhibitory effect over concentration range
Experimental: as §1

RPMI-8226 = assay: cells; details: for CC50: Homo sapiens, RPMI-8226, 72 h, read-out: LC50; for MI%: RPMI-8226, maximum inhibitory effect over concentration range
Experimental: as §1

MOLT-4 = assay: cells; details: Homo sapiens, MOLT-4, 72 h; for CC50: read-out: LC50; for Emax: read-out: MI%
Experimental: as §1

KG-1 = assay: cells; details: Homo sapiens, KG-1, 72 h, read-out: LC50
Experimental: as §1

CCOC(=O)CCc1ccccc1OP(=O)(N[C@@H](C)C(=O)OCc1ccccc1)OC[C@@H]1C[C@@H](O)[C@H](n2cnc3c(N)ncnc32)O1 (stereo partly shown) [Compound 7e]
CC50 (CRL cell line; 72 h): 3.4 µM | CC50 (MV4-11): 3.27 µM | MI% (MV4-11): 100% | MI% (HT29): 89% | CC50 (HT29): 25.2 µM | CC50 (HL-60): 78.5 µM | Emax (HL-60): 74% | CC50 (THP-1): 36.7 µM | MI% (THP-1): 100% | CC50 (SW620): 43.4 µM | MI% (SW620): 90% | CC50 (NCI-H929): 7.57 µM | MI% (NCI-H929): 100% | CC50 (RL): 7.26 µM | MI% (RL): 90% | CC50 (K562): 175 µM | Emax (K562): 61% | MI% (BxPC-3): 78% | CC50 (BxPC-3): 60.9 µM | CC50 (CCRF-CEM): 40.1 µM | Emax (CCRF-CEM): 90% | MI% (HS445): 92% | CC50 (HS445): 42.7 µM | CC50 (Z138): 68.2 µM | MI% (Z138): 76% | CC50 (HepG2): 96.1 µM | Emax (HepG2): 59% | CC50 (MCF-7): 15.8 µM | Emax (MCF-7): 78% | CC50 (MIA PaCa-2): 12.1 µM | MI% (MIA PaCa-2): 101% | MI% (HEL92.1.7): 99% | CC50 (HEL92.1.7): 14.5 µM | CC50 (Jurkat): 4.75 µM | MI% (Jurkat): 100% | CC50 (RPMI-8226): 31.1 µM | MI% (RPMI-8226): 106% | CC50 (MOLT-4): 12.6 µM | Emax (MOLT-4): 97% | CC50 (KG-1): 102 µM

C[C@H](NP(=O)(OC[C@@H]1C[C@@H](O)[C@H](n2cnc3c(N)ncnc32)O1)Oc1ccccc1)C(=O)OCc1ccccc1 (stereo partly drawn) [Compound 7a, (Rp)- and (Sp)-3′-Deoxyadenosine 5′-O-phenyl-(benzoxy-L-alaninyl)-phosphate]
CC50 (CRL cell line; 72 h): 2.1 µM | CC50 (CRL cell line): 3.6 µM | CC50 (MV4-11): 2.1 µM | MI% (MV4-11): 99% | MI% (HT29): 93% | CC50 (HT29): 13.4 µM | CC50 (HL-60): 17.8 µM | Emax (HL-60): 97% | CC50 (THP-1): 65.5 µM | MI% (THP-1): 74% | CC50 (SW620): 24.9 µM | MI% (SW620): 85% | CC50 (NCI-H929): 6.07 µM | MI% (NCI-H929): 100% | CC50 (RL): 3 µM | MI% (RL): 93% | CC50 (K562): 6.1 µM | Emax (K562): 92% | MI% (BxPC-3): 81% | CC50 (BxPC-3): 23.6 µM | CC50 (CCRF-CEM): 2.36 µM | Emax (CCRF-CEM): 100% | MI% (HS445): 98% | CC50 (HS445): 30.5 µM | CC50 (Z138): 27 µM | MI% (Z138): 95% | CC50 (HepG2): 18.7 µM | Emax (HepG2): 76% | CC50 (MCF-7): 3.07 µM | Emax (MCF-7): 94% | CC50 (MIA PaCa-2): 6.85 µM | MI% (MIA PaCa-2): 96% | MI% (HEL92.1.7): 100% | CC50 (HEL92.1.7): 8.07 µM | CC50 (Jurkat): 1.44 µM | fold more active than 3′-dA (Jurkat; Jurkat cell line, from LC50): approximately 200 fold | MI% (Jurkat): 100% | CC50 (RPMI-8226): 14.7 µM | MI% (RPMI-8226): 96% | CC50 (MOLT-4): 0.51 µM | Emax (MOLT-4): 98% | CC50 (KG-1): 17.4 µM
